# Assay results: publication PMC8775252, “Characterization of Alternaria porri causing onion purple blotch and its antifungal compound magnolol identified from Caryodaphnopsis baviensis” (PLoS ONE, 2022)
# Like-named read-outs stand apart in the source and are kept apart here.
# Columns and labels:
# Colletotrichum cocodes = test: microbe, parasite or virus in culture; type: cell-based; conditions: 72 h, 3 days, 25°C
# Botrytis cinerea = test: microbe, parasite or virus in culture; type: cell-based; conditions: 72 h, 3 days, 25°C
# Alternaria brassicicola = test: microbe, parasite or virus in culture; type: cell-based; conditions: 72 h, 3 days, 25°C
# Alternaria porri [1] = test: microbe, parasite or virus in culture; type: cell-based; conditions: 72 h, 3 days, 25°C
# Phytophthora infestans = test: microbe, parasite or virus in culture; type: cell-based; conditions: 72 h, 3 days, 25°C
# Fusarium oxysporum = test: microbe, parasite or virus in culture; type: cell-based, Fusarium oxysporum f. sp. lycopersici; conditions: 72 h, 3 days, 25°C
# Magnaporthe oryzae = test: microbe, parasite or virus in culture; type: cell-based; conditions: Pyricularia oryzae, 72 h; 3 days, 25°C
# OXPHOS complex II = OXPHOS complex II (Bos taurus, UniProt P31039+P35720+Q3T189+Q95123); test: biochemical
# OXPHOS complex III = OXPHOS complex III (Bos taurus, UniProt P00125+P00157+P13272); type: biochemical
# [2] = in vivo, cited from earlier work
# Alternaria porri [3] = test: microbe, parasite or virus in culture; type: cell-based
# Alternaria porri [4] = test: microbe, parasite or virus in culture; type: cell-based; remark: listed apart in the source
# OXPHOS complex I = type: biochemical
# OXPHOS complex IV = OXPHOS complex IV (Bos taurus, UniProt P00396+P68530); test: biochemical
# OXPHOS complex V = OXPHOS complex V (Bos taurus, UniProt P00829+P19483); test: MitoTox Complete OXPHOS Activity Assay; type: biochemical
# onion plants = conditions: in vivo
# [5] = tested on: onion purple blotch (Alternaria porri); type: in vivo, Allium cepa L.; conditions: sprayed at 100 μg/ml, 5 dpi
# Sequence of OXPHOS complex II (Q95123 56-158): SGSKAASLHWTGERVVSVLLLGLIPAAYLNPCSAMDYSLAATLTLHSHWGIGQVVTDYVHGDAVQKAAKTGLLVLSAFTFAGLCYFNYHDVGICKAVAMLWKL
# Sequence of OXPHOS complex II (P31039 44-665): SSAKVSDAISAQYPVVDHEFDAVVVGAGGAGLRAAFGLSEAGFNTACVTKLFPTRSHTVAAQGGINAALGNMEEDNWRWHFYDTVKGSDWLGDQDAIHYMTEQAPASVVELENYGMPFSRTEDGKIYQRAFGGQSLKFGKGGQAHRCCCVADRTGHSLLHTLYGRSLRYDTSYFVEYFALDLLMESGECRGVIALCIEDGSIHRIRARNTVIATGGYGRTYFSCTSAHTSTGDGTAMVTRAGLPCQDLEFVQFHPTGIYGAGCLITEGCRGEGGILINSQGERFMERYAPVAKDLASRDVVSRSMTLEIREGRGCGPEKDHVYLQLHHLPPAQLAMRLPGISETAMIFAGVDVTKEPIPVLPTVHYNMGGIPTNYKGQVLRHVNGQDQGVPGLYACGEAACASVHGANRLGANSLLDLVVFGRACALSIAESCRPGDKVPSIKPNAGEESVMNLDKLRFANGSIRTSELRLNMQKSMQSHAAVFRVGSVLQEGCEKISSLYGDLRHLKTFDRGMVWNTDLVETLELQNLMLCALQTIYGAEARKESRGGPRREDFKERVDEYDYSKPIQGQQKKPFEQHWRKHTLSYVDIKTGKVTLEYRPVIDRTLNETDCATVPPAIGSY
# Sequence of OXPHOS complex II (P35720 30-169): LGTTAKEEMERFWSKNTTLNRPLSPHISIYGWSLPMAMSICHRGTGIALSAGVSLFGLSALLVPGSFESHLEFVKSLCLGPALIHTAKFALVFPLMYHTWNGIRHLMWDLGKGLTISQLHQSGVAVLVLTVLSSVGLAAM
# Sequence of OXPHOS complex II (Q3T189 29-280): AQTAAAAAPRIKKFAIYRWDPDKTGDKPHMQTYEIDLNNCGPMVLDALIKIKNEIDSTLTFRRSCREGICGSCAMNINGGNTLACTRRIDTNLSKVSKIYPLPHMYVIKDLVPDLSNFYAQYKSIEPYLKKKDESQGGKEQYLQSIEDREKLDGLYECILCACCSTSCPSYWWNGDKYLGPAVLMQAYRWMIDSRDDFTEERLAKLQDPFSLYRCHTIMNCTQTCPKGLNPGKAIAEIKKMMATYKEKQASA
compound,measurement,setting,value
"C[C@@H]1C[C@@H]([C@H](O)CC2CC(=O)NC(=O)C2)C(=O)[C@@H](C)C1 [Cycloheximide, cycloheximide, reference compound]",MIC,Colletotrichum cocodes,1.6 µg/mL
same,MIC,Botrytis cinerea,50 µg/mL
same,MIC,Alternaria brassicicola,6.3 µg/mL
same,MIC,Alternaria porri [1],6.3 µg/mL
same,MIC,Phytophthora infestans,1.6 µg/mL
same,MIC,Fusarium oxysporum,200 µg/mL
same,MIC,Magnaporthe oryzae,6.3 µg/mL
"O=C(CC(=O)C(F)(F)F)c1cccs1 [TTFA, thenoyltrifluoroacetone, reference compound]",effect on complex II activity,OXPHOS complex II,suppressed each complex activity in a concentration-dependent manner
"CCCCCC[C@H]1C(=O)O[C@H](C)[C@H](NC(=O)c2cccc(NC=O)c2O)C(=O)O[C@@H](C)[C@@H]1OC(=O)CC(C)C [antimycin A, reference compound]",effect on complex III activity,OXPHOS complex III,suppressed each complex activity in a concentration-dependent manner
"C=CCc1ccc(O)c(-c2cc(CC=C)ccc2O)c1 [magnolol, 5,5’-di-2-propenyl-1,1’-biphenyl-2,2’-diol]",MIC,Colletotrichum cocodes,6.3 µg/mL
same,MIC,Botrytis cinerea,25 µg/mL
same,MIC,Alternaria brassicicola,6.3 µg/mL
same,IC50,OXPHOS complex II,8.3 µM
same,excreted in the feces and urine,[2]; po,> 90%
same,oral dose remaining circulating in the free form,[2],1%
same,IC50,"Alternaria porri [3]; 10 h, read-out: IC50, spore germination",4.5 µg/mL
same,MIC,"Alternaria porri [3]; read-out: MIC, spore germination completely inhibited",11 µg/mL
same,IC50,"OXPHOS complex III; read-out: IC50, complex III activity",19.4 µM
same,inhibitory activity on mycelial growth compared with mancozeb,Alternaria porri [4],more potent than that of the broad-spectrum fungicide mancozeb
same,IC50,"Alternaria porri [4]; Alternaria porri, 168 h, read-out: IC50, mycelial growth",5.4 µg/mL
same,MIC,"Alternaria porri [4]; Alternaria porri, read-out: MIC, mycelial growth completely inhibited",100 µg/mL
same,activity of complex I,OXPHOS complex I,78%
same,effect on complex I activity,OXPHOS complex I,decreased by the magnolol treatment in a concentration-dependent manner
same,MIC,Alternaria porri [1],6.3 µg/mL
same,MIC,Phytophthora infestans,> 100 µg/mL
same,MIC,Fusarium oxysporum,25 µg/mL
same,IC50,OXPHOS complex IV,10.9 µM
same,IC50,"OXPHOS complex V; read-out: IC50, complex V activity",4.7 µM
same,phytotoxic symptoms,onion plants,no phytotoxic symptoms
same,MIC,Magnaporthe oryzae,3.1 µg/mL
"CC[C@H]1/C=C/C=C/C[C@@H](C)[C@H](O)[C@@](C)(O)C(=O)[C@@H](C)[C@H](O)[C@@H](C)C(=O)[C@@H](C)[C@H](O)[C@@H](C)/C=C/C(=O)O[C@@H]2[C@H](C)[C@H](CC1)O[C@]1(CC[C@H](C)[C@H](C[C@@H](C)O)O1)[C@H]2C [oligomycin, reference compound]",effect on complex V activity,"OXPHOS complex V; result in words, S6 Fig",suppressed each complex activity in a concentration-dependent manner
"C=C(C)[C@H]1Cc2c(ccc3c2O[C@@H]2COc4cc(OC)c(OC)cc4[C@@H]2C3=O)O1 [rotenone, reference compound]",effect on complex I activity,OXPHOS complex I,suppressed each complex activity in a concentration-dependent manner
mancozeb,disease control value,[5],95%
